Data on 1 molecule can be found in patent publication US20250270165A1, “COMPOSITIONS FOR AND METHODS OF MODULATING RNA STABILITY” (Duke University, priority 2022, published 2025).

Each structure is given as a SMILES string.

Assay [1] has as its system MALAT1 triple helix. The assay can be described thus: Differential scanning fluorimetry (DSF), triplex thermal stability. It counts as binding, human. How it is done:
Differential Scanning Fluorimetry. Differential scanning fluorimetry experiments were performed as previously reported. (Donlic A, et al. (2020) Nucleic Acids Res. 48(14):7653-7664). All experiments were performed in white 96 well plates in a LightCycler® 96 (Roche). In a typical experiment, 4 μM of RNA was annealed in the same buffer used for indicator displacement assays (20 mM HEPES-KOH, 52.6 mM KCl, 0.1 mM MgCl2, pH=7.4) by heating at 95° C. for 3 minutes, snap-cooling on ice for 10 minutes, and leaving the solution at room temperature for 1 hr. Then, 42 μL of this solution was aliquoted to wells and 5 μM of ligand was added (2.5 μL of water, 2.0 μL of DMSO, 0.5 μL of 500 μM small molecule stock). The mixture was left to incubate at room temperature for 5 minutes, after which 3 μL of a 20 µM Quant-iT™ RiboGreen™ (ThermoFisher Scientific) dye stock solution in appropriate buffer was added to each well. The 96 well plate was then sealed with an optically clear foil and centrifuged for 1 minute at 4000 rpm prior to being placed in the instrument. The light cycler program was created by selecting the melting curve method; fluorescence intensity was monitored using the SYBR Green I/HRM dye filter combination (465-510 nm) from 37-98° C. at a ramp rate of 0.01° C./second with 150 acquisitions per ° C. Melting profiles were obtained by Tm analysis in the LightCycler® 96 software (SW 1.1).
A general note: DSF heats the sample and reads unfolding from a dye or from intrinsic fluorescence.

Assay [2] relates to MALAT1 triple helix. The assay can be described thus: RNase A enzymatic degradation assay. Particulars: 5-minute time point, relative to DMSO control. It counts as biochemical, human. The protocol:
RNase A Enzymatic Degradation Assay.
The procedure was adapted from a published protocol for exonucleolytic enzymatic degradation assay. (Donlic A, et al. (2020) Nucleic Acids Res. 48(14):7653-7664). The MALAT1 destabilizing small molecules published by Le Grice (Abulwerdi F A, et al. (2019) ACS Chem Biol. 14(2):223-235) and co-workers SM5 and SM16 were purchased from ChemBridge. For a typical 70 μL reaction, […] of MALAT1 triple helix RNA was annealed in the same buffer used for IDA and DSF experiments (20 mM HEPES-KOH, 52 mM KCl, 0.1 mM MgCl2, pH=7.4) by heating at 95° C. for 3 minutes, snap-cooling on ice for 10 minutes, and leaving the solution at room temperature for 1 hr.
RNase A enzyme (ThermoFisher) was diluted to 1.46 nM and incubated with 1 M NaCl for 30-35 minutes to achieve ssRNA selectivity as reported. (Struhl K, et al. (1989) Current Protocols in Molecular Biology. 8(1):3.13.1-3.13.3). Next, the RNA was mixed with […] of a CC-rich DNA duplex, 0.2 mM of small molecule/DMSO and incubated at room temperature for 20 minutes. Following the incubation, […] of RNase A was added, and the reaction was incubated at 37° C. for 1 hour in a thermal cycler with a heated lid (Eppendorf). 4 μL timepoint aliquots were taken at 0, 5, 10, 30, and 60 minutes, 4 μL of 2×RNA loading dye was added to each aliquot (ThermoFischer Scientific), and samples were stored at −80° C. prior to gel analysis. Reactions were analyzed on pre-cast 15% PAGE-Urea gels (Invitrogen) in 1×TBE buffer. Aliquots were thawed from −80° C. storage and heated to 95° C. for 15 minutes prior to gel loading and […] were loaded in each well. Gels were run for 45 minutes at 180 V, stained with Diamond™ Nucleic Acid dye (Promega), and visualized on an iBright 500 (ThermoFisher). DMSO controls were ran with every set of 4 small molecules to ensure consistency of enzyme activity and RNA integrity. Gel band intensity of the MALAT1 triple helix and DNA loading control were quantified using ImageJ software. (Rueden C T, et al. (2017) BMC Bioinformatics. 18(1):529).
To quantify time-dependent endonucleolytic degradation for each sample, the intensity was normalized using Equation (3), and fold-difference was calculated as listed in Equation (4) as previously reported. (Donlic A, et al. (2020) Nucleic Acids Res. 48(14):7653-7664).
where y is fold-difference of the exonucleolytic degradation for the specific sample, with normalized areas for its specific time point x and time point 0 calculated as described in Equation (3). Percent RNA degraded was calculated for every time point using Equation (5).
% RNA degraded=(Normalized area (t0)−Normalized area (tx))*100 (Equation 5)
Experimental results shown in FIG. 6C are plotted as three independent replicates and standard deviation between replicates as error bars. Relative fold change between treated condition and DMSO was calculated from Equation (6).

Assay [3] relates to LNCaP cells. The assay can be described thus: MTT assay in LNCaP cells. It counts as cell-based, human. An excerpt:
The MTT reagent (3-(4,5-dimethylthiazol-2-yl)-2,5-diphenyl-2H-tetrazolium bromide) is a mono-tetrazolium salt that consists of a positively charged quaternary tetrazole ring core containing four nitrogen atoms surrounded by three aromatic rings including two phenyl moieties and one thiazolyl ring. Reduction of MTT results in disruption of the core tetrazole ring and the formation of a violet-blue water-insoluble molecule called formazan. The MTT reagent can pass through the cell membrane as well as the mitochondrial inner membrane of viable cells presumably due to its positive charge as well as its lipophilic structure and is reduced to formazan by metabolically active cells. The chromogenic nature of this redox chemical reaction provides a colorimetric-based measurement of intracellular formazan production based on which the MTT assay was developed. Consequently, the assay has extensive utility as a cell metabolic activity assay.
In the first set of […] experiments, four (4) members of the small molecule library were examined in a MTT assay. […] The IC50 values and trends were similar to the apparent small molecule affinities for MALAT-1, supporting a MALAT-1 related mechanism for the toxicity. […] Ongoing cytotoxicity studies using other DMZ small molecule analogs (as well as DMZ-5, DMZ-P13, and DMZ-P17) continue to illuminate mechanism of action regarding toxicity to cancer cells.

`N=C(N)c1ccc(/N=N/Nc2ccc(C(=N)N)cc2)cc1` [DMZ-P0, diminazene, reference compound]: the “effect on MALAT1 triplex thermal stability (DSF), in words” value in assay [1] was “increases in thermal stability”. For the same molecule, in assay [2], the “stabilizer or destabilizer of MALAT1 triplex (RNase A degradation)” value is on record as “destabilizers”. The “IC50 relative to other tested library members, in words” value in assay [3] is “much higher IC50”.
